Assay results: patent publication US11071731B2, “Allosteric modulators of the mu opioid receptor” (Chiromics, LLC, priority 2017, dated 2021)

Assays:
[1] = biological target: T1, mu opioid receptor (MOR) (Homo sapiens, UniProt P35372); assay: PathHunter β-arrestin recruitment assay, PAM mode with EC20 endomorphin-1; assay type: cell-based
Summary of the method: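 β-Arrestin recruitment to the receptor was tracked by chemiluminescent β-galactosidase activity from complementing fragments (ED on receptor, EA on β-arrestin). Per-compound outputs were EC50 and percent maximal response.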

[2] = biological target: T1, mu opioid receptor (MOR); assay: Hit Hunter cAMP signaling assay (adenylyl cyclase inhibition), PAM mode with EC20 endomorphin-1; assay type: cell-based
[3] = maximal response for β-arrestin recruitment
[4] = β-arrestin recruitment, read-out: β-arr. EC50
[5] = adenylyl cyclase inhibition, read-out: cAMP EC50
[6] = maximal response for adenylyl cyclase inhibition
[7] = cAMP EC50, adenylyl cyclase inhibition
[8] = maximal response, β-arrestin recruitment
[9] = maximal response, adenylyl cyclase inhibition

T1 sequence (P35372 whole entry, the tested form may be a part): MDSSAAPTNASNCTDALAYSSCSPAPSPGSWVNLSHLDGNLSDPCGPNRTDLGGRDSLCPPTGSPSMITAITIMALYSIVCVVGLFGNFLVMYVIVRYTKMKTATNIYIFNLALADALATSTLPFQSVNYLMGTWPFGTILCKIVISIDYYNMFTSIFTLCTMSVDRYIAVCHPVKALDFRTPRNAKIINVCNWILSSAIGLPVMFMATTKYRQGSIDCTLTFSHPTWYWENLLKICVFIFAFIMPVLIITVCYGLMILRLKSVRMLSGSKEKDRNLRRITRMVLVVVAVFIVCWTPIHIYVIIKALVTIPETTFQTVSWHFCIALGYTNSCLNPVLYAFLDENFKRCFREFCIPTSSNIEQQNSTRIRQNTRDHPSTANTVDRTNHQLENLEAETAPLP

Row | SMILES | β-arr Max. Resp. [1, 3] | β-arrestin Max Response ([1]; β-arrestin recruitment, activity switching by MOR PAMs) | EC50 ([1]; β-arrestin recruitment, activity switching by MOR PAMs, read-out: β-arrestin EC50) [nM] | EC50 [1, 4] [nM] | cAMP Max Resp. ([2]; adenylyl cyclase inhibition, activity switching by MOR PAMs) | EC50 ([2]; adenylyl cyclase inhibition, activity switching by MOR PAMs, read-out: cAMP EC50) [nM] | EC50 [2, 5] [nM] | cAMP Max. Resp. [2, 6] | EC50 [2, 7] [nM] | β-arr Max. Resp. [1, 8] | cAMP Max. Resp. [2, 9]
1 | O=S(=O)(c1ccc(Cl)cc1)N1CCCCC1c1cccc(C(F)(F)F)c1 (centres unmarked) [compound 18] | F (F represents a maximal response of > 60%) | F (F represents a maximal response of >60%) | > 2100 | > 2100 | D (D represents a maximal response of < 40%) | > 2100 | 700 to 2100 | D (D represents a maximal response of < 40%) | – | – | –
2 | O=S(=O)(Cc1ccc(Cl)c(Cl)c1)N1CCCCC1c1cccc(C(F)(F)F)c1 (centres unmarked) [Compound 23] | F (F represents a maximal response of > 60%) | – | – | > 2100 | – | – | > 2100 | D (D represents a maximal response of < 40%) | – | – | –
3 | CC1CCN(S(=O)(=O)c2ccc(Cl)cc2)C1c1ccc(F)c(Br)c1 (centres unmarked) [Compound 106] | F (F represents a maximal response of > 60%) | – | – | 700 to 2100 | – | – | < 700 | D (D represents a maximal response of < 40%) | – | – | –
4 | OC1CCN(c2nc(Cl)ncc2F)C(c2ccc(F)c(Br)c2)C1 (centres unmarked) [compound 241] | F (F represents a maximal response of > 60%) | – | – | > 2100 | – | – | – | E (E represents a maximal response of 40-60%) | > 2100 | – | –
5 | O=S(=O)(c1ccc(Cl)cc1)N1C2CCC(C2)C1c1ccc(F)c(Br)c1 (centres unmarked) [Compound 179] | F (F represents a maximal response of > 60%) | – | – | 700 to 2100 | – | – | < 700 | D (D represents a maximal response of < 40%) | – | – | –
6 | Fc1cncc(C2CCCCN2c2nc(Cl)ncc2F)c1 (centres unmarked) [compound 370] | D (D represents a maximal response of < 40%) | – | – | < 700 | – | – | – | D (D represents a maximal response of < 40%) | < 700 | – | –
7 | COc1cc(C2CCCCN2S(=O)(=O)c2ccc(Cl)cc2)ccc1Br (centres unmarked) [compound 42] | E (E represents a maximal response of 40-60%) | – | – | 700 to 2100 | – | – | > 2100 | D (D represents a maximal response of < 40%) | – | – | –
8 | O=S(=O)(c1ccc(Cl)cc1F)N1CCCCC1c1cccc(C(F)(F)F)c1 (centres unmarked) [Compound 25] | F (F represents a maximal response of > 60%) | – | – | > 2100 | – | – | > 2100 | D (D represents a maximal response of < 40%) | – | – | –
9 | COc1ccc(C2COCCN2c2nc(Cl)ncc2F)cc1Br (racemic) [Compound 187] | F (F represents a maximal response of > 60%) | – | – | > 2100 | – | – | > 2100 | E (E represents a maximal response of 40-60%) | – | – | –
10 | FC(F)(F)c1ccc(N2CCCCC2c2cccc(C(F)(F)F)n2)cc1 (centres unmarked) [compound 452] | – | – | – | > 2100 | – | – | – | – | > 2100 | E (E represents a maximal response of 40-60%) | D (D represents a maximal response of < 40%)
11 | Fc1cc(C2CC(F)CN2c2nc(Cl)ncc2F)cc(C(F)(F)F)c1 (centres unmarked) [compound 468] | – | – | – | > 2100 | – | – | > 2100 | – | – | F (F represents a maximal response of > 60%) | F (F represents a maximal response of > 60%)
12 | O=S(=O)(c1ccc(Cl)cc1)N1CCCCC1c1ccc(F)c(Cl)c1 (racemic) [compound 52] | F (F represents a maximal response of > 60%) | – | – | < 700 | – | – | < 700 | F (F represents a maximal response of > 60%) | – | – | –
13 | Fc1ccc(Cl)nc1N1CCCCC1c1cncc(Cl)n1 (centres unmarked) [compound 395] | D (D represents a maximal response of < 40%) | – | – | < 700 | – | – | < 700 | D (D represents a maximal response of < 40%) | – | – | –
14 | Fc1ccc(C2CCCCN2c2nc(Cl)ncc2F)cc1 (centres unmarked) [compound 127] | F (F represents a maximal response of > 60%) | – | – | < 700 | – | – | – | E (E represents a maximal response of 40-60%) | 700 to 2100 | – | –
15 | COc1ccc(C2CCCCN2S(=O)(=O)c2ccc(Cl)cc2)cc1C (racemic) [compound 68] | F (F represents a maximal response of > 60%) | – | – | > 2100 | – | – | 700 to 2100 | E (E represents a maximal response of 40-60%) | – | – | –
16 | Fc1cnc(Cl)nc1N1CCCCC1c1ccccn1 (centres unmarked) [compound 329] | D (D represents a maximal response of < 40%) | – | – | < 700 | – | – | – | D (D represents a maximal response of < 40%) | < 700 | – | –
17 | COc1ccc(C2CC(C(F)(F)F)CN2S(=O)(=O)c2ccc(Cl)cc2)cc1Br (mixture of isomers) [Compound 86] | D (D represents a maximal response of < 40%) | – | – | > 2100 | – | – | > 2100 | D (D represents a maximal response of < 40%) | – | – | –
18 | Fc1ccc(C(F)(F)F)cc1C1CCCCN1c1ccnc(Cl)n1 (centres unmarked) [compound 403] | D (D represents a maximal response of < 40%) | – | – | < 700 | – | – | – | D (D represents a maximal response of < 40%) | < 700 | – | –

Row | SMILES | β-arr Max. Resp. [1, 3] | β-arrestin Max Response ([1]; β-arrestin recruitment, activity switching by MOR PAMs) | EC50 ([1]; β-arrestin recruitment, activity switching by MOR PAMs, read-out: β-arrestin EC50) [nM] | EC50 [1, 4] [nM] | cAMP Max Resp. ([2]; adenylyl cyclase inhibition, activity switching by MOR PAMs) | EC50 ([2]; adenylyl cyclase inhibition, activity switching by MOR PAMs, read-out: cAMP EC50) [nM] | EC50 [2, 5] [nM] | cAMP Max. Resp. [2, 6] | EC50 [2, 7] [nM] | β-arr Max. Resp. [1, 8] | cAMP Max. Resp. [2, 9]
19 | Fc1ccc(C2CCCCN2c2ccnc(Cl)n2)cc1Cl (centres unmarked) [compound 470] | – | – | – | > 2100 | – | – | – | – | > 2100 | F (F represents a maximal response of > 60%) | E (E represents a maximal response of 40-60%)
20 | Fc1cnc(Cl)nc1N1CCCCC1c1c(C(F)(F)F)ccc(F)c1Br (centres unmarked) [compound 354] | D (D represents a maximal response of < 40%) | – | – | < 700 | – | – | – | D (D represents a maximal response of < 40%) | < 700 | – | –
21 | O=S(=O)(c1cccc(Cl)c1F)N1CCCCC1c1cccc(C(F)(F)F)c1 (centres unmarked) [Compound 28] | F (F represents a maximal response of > 60%) | – | – | 700 to 2100 | – | – | 700 to 2100 | D (D represents a maximal response of < 40%) | – | – | –
22 | COc1ccc(C2CCCCN2S(=O)(=O)c2ccc(C)cc2)cc1Br (centres unmarked) [compound 12] | F (F represents a maximal response of > 60%) | – | – | > 2100 | – | – | – | E (E represents a maximal response of 40-60%) | 700 to 2100 | – | –
23 | Cc1cnc(Cl)nc1N1CCCCC1c1cccc(F)n1 (centres unmarked) [compound 267] | D (D represents a maximal response of < 40%) | – | – | > 2100 | – | – | – | E (E represents a maximal response of 40-60%) | > 2100 | – | –
24 | CC1CCN(S(=O)(=O)c2ccc(Cl)cc2)C1c1cccc(Cl)c1 (centres unmarked) [Compound 107] | F (F represents a maximal response of > 60%) | – | – | > 2100 | – | – | > 2100 | D (D represents a maximal response of < 40%) | – | – | –
25 | CC1CCN(S(=O)(=O)c2ccc(Cl)cc2)C1c1ccc(Br)c(F)c1 (mixture of isomers) [Compound 92] | F (F represents a maximal response of > 60%) | – | – | 700 to 2100 | – | – | > 2100 | D (D represents a maximal response of < 40%) | – | – | –
26 | CCC1CCCN(c2nc(Cl)ncc2F)C1c1ccc(OC)c(Br)c1 (centres unmarked) [compound 251] | F (F represents a maximal response of > 60%) | – | – | > 2100 | – | – | > 2100 | D (D represents a maximal response of < 40%) | – | – | –
27 | O=S(=O)(c1cccc(Cl)c1)N1CCCCC1c1cccc(C(F)(F)F)c1 (centres unmarked) [Compound 21] | F (F represents a maximal response of > 60%) | – | – | > 2100 | – | – | > 2100 | F (F represents a maximal response of > 60%) | – | – | –
28 | Cc1cnc(N2CCCCC2c2cccc(F)n2)nc1Cl (centres unmarked) [compound 268] | D (D represents a maximal response of < 40%) | – | – | > 2100 | – | – | – | F (F represents a maximal response of > 60%) | > 2100 | – | –
29 | Fc1cccc(C2CCCCN2c2cc(Cl)ncc2F)n1 (centres unmarked) [compound 262] | E (E represents a maximal response of 40-60%) | – | – | > 2100 | – | – | – | D (D represents a maximal response of < 40%) | > 2100 | – | –
30 | O=S(=O)(c1ccc(Cl)cc1)N1CCCCC1c1ccc(F)cc1 (racemic) [compound 78] | F (F represents a maximal response of > 60%) | – | – | 700 to 2100 | – | – | < 700 | E (E represents a maximal response of 40-60%) | – | – | –
31 | Fc1cnc(Cl)nc1N1CCCCC1c1ccc(Cl)c(C(F)(F)F)c1 (single isomer, unassigned) [compound 348] | D (D represents a maximal response of < 40%) | – | – | < 700 | – | – | – | D (D represents a maximal response of < 40%) | – | – | –
32 | COc1cccc(CN2CCCCC2c2cccc(C(F)(F)F)n2)c1 (centres unmarked) [compound 156] | F (F represents a maximal response of > 60%) | – | – | > 2100 | – | – | – | E (E represents a maximal response of 40-60%) | > 2100 | – | –
33 | COc1ncc(F)c(N2CCCCC2c2cccc(F)n2)n1 (centres unmarked) [compound 272] | D (D represents a maximal response of < 40%) | – | – | > 2100 | – | – | – | F (F represents a maximal response of > 60%) | > 2100 | – | –
34 | COc1ccc(C2C(C(F)(F)F)CCN2S(=O)(=O)c2ccc(Cl)cc2)cc1Br (mixture of isomers) [Compound 90] | D (D represents a maximal response of < 40%) | – | – | > 2100 | – | – | > 2100 | D (D represents a maximal response of < 40%) | – | – | –
35 | Fc1ccc(Cl)cc1CN1CCOCC1c1cccc(C(F)(F)F)c1 (racemic) [Compound 193] | F (F represents a maximal response of > 60%) | – | – | 700 to 2100 | – | – | > 2100 | F (F represents a maximal response of > 60%) | – | – | –
